This passage reports IC50 results from ChEMBL document CHEMBL6114954, “Design, synthesis and cytotoxic activity of novel lipophilic cationic derivatives of diosgenin and sarsasapogenin” (Bioorg Med Chem Lett, 2025).

A value given as a limit tells only on which side of the number the result lay.

Holding throughout (type): functional, cell-based
Assay [1] relates to HepG2. Kind of assay: Cytotoxicity against human HepG2 cells.
Assay [2] concerns A549. Kind of assay: Cytotoxicity against human A549 cells.
Assay [3] relates to MDA-MB-231. Kind of assay: Cytotoxicity against human MDA-MB-231 cells.

Turning to `CC[N+]1(CCCC(=O)OC[C@H](C)CC[C@H]2O[C@H]3C[C@H]4[C@@H]5CC=C6C[C@@H](OC(C)=O)CC[C@]6(C)[C@H]5CC[C@]4(C)[C@H]3[C@@H]2C)CCc2ccccc2C1` (stereo partly drawn), the IC50 – broadly, the midpoint of a concentration-inhibition curve – in assay [1] was found to be 33.5 µM; in assay [2], 14.4 µM; in assay [3], 34.8 µM.
`CC[N+]1(CCCC(=O)O[C@H]2CC[C@@]3(C)C(=CC[C@H]4[C@@H]5C[C@@H]6O[C@]7(CCC(C)CO7)[C@@H](C)[C@@H]6[C@@]5(C)CC[C@@H]43)C2)CCc2ccccc2C1` (stereo partly drawn): the IC50 was found to be 18.8 µM in assay [1], 8.43 µM in assay [2] and 20.6 µM in assay [3].
Turning to `CC1CC[C@@]2(OC1)O[C@H]1C[C@H]3[C@@H]4CC=C5C[C@@H](OC(=O)CC[P+](c6ccccc6)(c6ccccc6)c6ccccc6)CC[C@]5(C)[C@H]4CC[C@]3(C)[C@H]1[C@@H]2C` (stereo partly drawn), the IC50 in assay [1] worked out at 8.28 µM; in assay [2], 1.19 µM; in assay [3], 7.92 µM.
For `C[C@@H]1CC[C@@]2(OC1)O[C@H]1C[C@H]3[C@@H]4CC=C5C[C@@H](O)CC[C@]5(C)[C@H]4CC[C@]3(C)[C@H]1[C@@H]2C` [DISOGENIN], the IC50 in assay [1] and in assay [3] was greater than 50 µM each time.
In the case of `CC(=O)O[C@H]1CC[C@@]2(C)C(=CC[C@H]3[C@@H]4C[C@@H]5O[C@H](CC[C@@H](C)COC(=O)CCC[P+](c6ccccc6)(c6ccccc6)c6ccccc6)[C@@H](C)[C@@H]5[C@@]4(C)CC[C@@H]32)C1`, the IC50 in assay [1] turned out to be 23.7 µM; in assay [2], 6.06 µM; in assay [3] it was 31.5 µM.
The like results for `CC[N+]1(CCCC(=O)O[C@H]2CC[C@@]3(C)[C@H](CC[C@@H]4[C@@H]3CC[C@]3(C)[C@@H]5[C@H](C[C@@H]43)O[C@]3(CCC(C)CO3)[C@H]5C)C2)CCNCC1` (stereo partly drawn) were, in that order, greater than 50 µM, 26.1 µM and greater than 50 µM.
The like results for `CC1CC[C@@]2(OC1)O[C@H]1C[C@H]3[C@@H]4CC=C5C[C@@H](OC(=O)CCCCC[P+](c6ccccc6)(c6ccccc6)c6ccccc6)CC[C@]5(C)[C@H]4CC[C@]3(C)[C@H]1[C@@H]2C` (stereo partly drawn) were, in that order, 4.19 µM, 1.24 µM and 5.49 µM.
In the case of `CC1CC[C@@]2(OC1)O[C@H]1C[C@H]3[C@@H]4CC[C@@H]5C[C@@H](OC(=O)CCC[P+](c6ccccc6)(c6ccccc6)c6ccccc6)CC[C@]5(C)[C@H]4CC[C@]3(C)[C@H]1[C@@H]2C` (stereo partly drawn), the values for the IC50 in assay [1], in assay [2] and in assay [3] were 3.44 µM, 1 µM and 3.62 µM, respectively.
Take `CC[N+]1(CCCC(=O)O[C@H]2CC[C@@]3(C)[C@H](CC[C@@H]4[C@@H]3CC[C@]3(C)[C@@H]5[C@H](C[C@@H]43)O[C@]3(CCC(C)CO3)[C@H]5C)C2)CCCC1` (stereo partly drawn): the IC50 in assay [1] turned out to be 9.08 µM; in assay [2], 15.4 µM; in assay [3], 16.2 µM.
Turning to `CC[N+]1(CCCC(=O)OC[C@H](C)CC[C@H]2O[C@H]3C[C@H]4[C@@H]5CC=C6C[C@@H](OC(C)=O)CC[C@]6(C)[C@H]5CC[C@]4(C)[C@H]3[C@@H]2C)CCCC1`, the IC50 is greater than 50 µM in assay [1], 20.7 µM in assay [2] and greater than 50 µM in assay [3].
Take `CC1CC[C@@]2(OC1)O[C@H]1C[C@H]3[C@@H]4CC[C@@H]5C[C@@H](OC(=O)CC[P+](c6ccccc6)(c6ccccc6)c6ccccc6)CC[C@]5(C)[C@H]4CC[C@]3(C)[C@H]1[C@@H]2C` (stereo partly drawn): the IC50 came out at 3.34 µM in assay [1], 1.09 µM in assay [2] and 4.26 µM in assay [3].
The like results for `CC(=O)O[C@H]1CC[C@@]2(C)C(=CC[C@H]3[C@@H]4C[C@@H]5O[C@H](CC[C@@H](C)COC(=O)CC[P+](c6ccccc6)(c6ccccc6)c6ccccc6)[C@@H](C)[C@@H]5[C@@]4(C)CC[C@@H]32)C1` were, in that order, 26.2 µM, 5.99 µM and 38.5 µM.
For `CC1CC[C@@]2(OC1)O[C@H]1C[C@H]3[C@@H]4CC[C@@H]5C[C@@H](OC(=O)CCCCC[P+](c6ccccc6)(c6ccccc6)c6ccccc6)CC[C@]5(C)[C@H]4CC[C@]3(C)[C@H]1[C@@H]2C` (stereo partly drawn), the results for the 50% inhibitory concentration (IC50) in assay [1], in assay [2] and in assay [3] were 4.18 µM, 1.3 µM and 5.01 µM, respectively.
With `CC[N+]1(CCCC(=O)OC[C@H](C)CC[C@H]2O[C@H]3C[C@H]4[C@@H]5CC=C6C[C@@H](OC(C)=O)CC[C@]6(C)[C@H]5CC[C@]4(C)[C@H]3[C@@H]2C)CCOCC1`, the IC50 in assay [1] was greater than 50 µM; in assay [2], 17.4 µM; in assay [3] it was greater than 50 µM.
Take `CC[N+]1(CCCC(=O)O[C@H]2CC[C@@]3(C)[C@H](CC[C@@H]4[C@@H]3CC[C@]3(C)[C@@H]5[C@H](C[C@@H]43)O[C@]3(CCC(C)CO3)[C@H]5C)C2)CCOCC1` (stereo partly drawn): the IC50 was determined as 22.6 µM in assay [1], 18.7 µM in assay [2] and 34.8 µM in assay [3].
The like results for `CC[N+]1(CCCC(=O)OC[C@H](C)CC[C@H]2O[C@H]3C[C@H]4[C@@H]5CC=C6C[C@@H](OC(C)=O)CC[C@]6(C)[C@H]5CC[C@]4(C)[C@H]3[C@@H]2C)CCCCC1` were, in that order, greater than 50 µM, 18 µM and greater than 50 µM.
For `CC[N+]1(CCCC(=O)O[C@H]2CC[C@@]3(C)[C@H](CC[C@@H]4[C@@H]3CC[C@]3(C)[C@@H]5[C@H](C[C@@H]43)O[C@]3(CCC(C)CO3)[C@H]5C)C2)CCc2ccccc2C1` (stereo partly drawn), in that order: 9.52 µM, 10.8 µM and 13.8 µM.
Consider `CC(=O)O[C@H]1CC[C@@]2(C)C(=CC[C@H]3[C@@H]4C[C@@H]5O[C@H](CC[C@@H](C)COC(=O)C[P+](c6ccccc6)(c6ccccc6)c6ccccc6)[C@@H](C)[C@@H]5[C@@]4(C)CC[C@@H]32)C1`, for which the IC50 came to 25.4 µM in assay [1], 10.8 µM in assay [2] and 32 µM in assay [3].
Regarding `CC[N+]1(CCCC(=O)O[C@H]2CC[C@@]3(C)[C@H](CC[C@@H]4[C@@H]3CC[C@]3(C)[C@@H]5[C@H](C[C@@H]43)O[C@]3(CCC(C)CO3)[C@H]5C)C2)CCCCC1` (stereo partly drawn), the IC50 in assay [1] was found to be 19.9 µM; in assay [2], 14.6 µM; in assay [3] it was 37.8 µM.
For `CC1CC[C@@]2(OC1)O[C@H]1C[C@H]3[C@@H]4CC[C@@H]5C[C@@H](OC(=O)C[P+](c6ccccc6)(c6ccccc6)c6ccccc6)CC[C@]5(C)[C@H]4CC[C@]3(C)[C@H]1[C@@H]2C` (stereo partly drawn), in that order: 22.6 µM, 5.23 µM and 42.9 µM.
On to `CC(=O)O[C@H]1CC[C@@]2(C)C(=CC[C@H]3[C@@H]4C[C@@H]5O[C@H](CC[C@@H](C)COC(=O)CCCCC[P+](c6ccccc6)(c6ccccc6)c6ccccc6)[C@@H](C)[C@@H]5[C@@]4(C)CC[C@@H]32)C1`, for which the IC50 in assay [1] was found to be 30.1 µM; in assay [2], 5.63 µM; in assay [3], 36.6 µM.
Consider `CC[N+]1(CCCC(=O)OC[C@H](C)CC[C@H]2O[C@H]3C[C@H]4[C@@H]5CC=C6C[C@@H](OC(C)=O)CC[C@]6(C)[C@H]5CC[C@]4(C)[C@H]3[C@@H]2C)CCNCC1`, for which the IC50 in assay [1] amounted to 34.6 µM; in assay [2], 13.7 µM; in assay [3], 36.4 µM.
The like results for `CC[N+]1(CCCC(=O)O[C@H]2CC[C@@]3(C)C(=CC[C@H]4[C@@H]5C[C@@H]6O[C@]7(CCC(C)CO7)[C@@H](C)[C@@H]6[C@@]5(C)CC[C@@H]43)C2)CCNCC1` (stereo partly drawn) were, in that order, 33.7 µM, 18.6 µM and 49.2 µM.
For `CC[N+]1(CCCC(=O)O[C@H]2CC[C@@]3(C)C(=CC[C@H]4[C@@H]5C[C@@H]6O[C@]7(CCC(C)CO7)[C@@H](C)[C@@H]6[C@@]5(C)CC[C@@H]43)C2)CCCC1` (stereo partly drawn), the IC50 is 16.8 µM in assay [1], 16.2 µM in assay [2] and 26.4 µM in assay [3].
The like results for `CC[N+]1(CCCC(=O)O[C@H]2CC[C@@]3(C)C(=CC[C@H]4[C@@H]5C[C@@H]6O[C@]7(CCC(C)CO7)[C@@H](C)[C@@H]6[C@@]5(C)CC[C@@H]43)C2)CCCCC1` (stereo partly drawn) were, in that order, 19.2 µM, 15.4 µM and 40.5 µM.
In the case of `C[C@@H]1CC[C@@]2(OC1)O[C@H]1C[C@H]3[C@@H]4CC[C@@H]5C[C@@H](O)CC[C@]5(C)[C@H]4CC[C@]3(C)[C@H]1[C@@H]2C`, the IC50 in assay [1], in assay [2] and in assay [3] was greater than 50 µM in each case.
Consider `CC1CC[C@@]2(OC1)O[C@H]1C[C@H]3[C@@H]4CC=C5C[C@@H](OC(=O)C[P+](c6ccccc6)(c6ccccc6)c6ccccc6)CC[C@]5(C)[C@H]4CC[C@]3(C)[C@H]1[C@@H]2C` (stereo partly drawn), for which the IC50 in assay [1] was 22.2 µM; in assay [2], 15.6 µM; in assay [3], 33.3 µM.
For `CC[N+]1(CCCC(=O)O[C@H]2CC[C@@]3(C)C(=CC[C@H]4[C@@H]5C[C@@H]6O[C@]7(CCC(C)CO7)[C@@H](C)[C@@H]6[C@@]5(C)CC[C@@H]43)C2)CCOCC1` (stereo partly drawn), in that order: 27.9 µM, 29.1 µM and 41.6 µM.
